# Results from patent US20250186472A1, “COMBINATION OF POH AND REMDESIVIR FOR TREATMENT OF CNS INFECTIONS” (NeOnc Technologies, Inc., priority 2020, published 2025).
# “Also recorded” adds a separate entry of the source.
# Columns and labels:
# [1] = tested on: Madin-Darby Canine Kidney (MDCK) cells; experiment: In vitro BBB tight junction model (Transwell, TEER, fluorescent antibody); assay type: cell-based
# Method: The labelled components are Transwell chemotaxis chamber; upper chamber; porous membrane and lower chamber. Transwell culture chambers (pore size: 0.8 μm). Madin-Darby Canine Kidney (MDCK) cells are epithelial cells. TEER: transepithelial/transendothelial electrical resistance. Fluorescence Ab: Alexa Fluo®488; donkey anti-rat IgG (H+L). Fluorescence was measured in the lower chamber in about 120 minutes.
# [2] = tested on: BBB in an in vitro BBB model; experiment: In vitro BBB model, remdesivir transport across Transwell; assay type: cell-based; settings: POH 1.5 mM; POH-Remdesivir vs H2O-Remdesivir in upper chamber; 4 hours
# Method: For the in vitro, cells were plated in the upper chamber of a Transwell. The POH-Remdesivir or H2O-Remdesivir mixture was placed in the upper chamber. POH was at a concentration of 1.5 mM. The media from both upper and lower chambers were collected after 4 hours and quantitated for remdesivir.
# GL261 mouse glioma [3] = experiment: Anti-mouse PD-1 antibody therapeutic efficacy (survival) in intracranial syngeneic glioma; assay type: in vivo, C57 BL/6 mice; settings: IC 40 μl 5% NEO100 and/or IV anti-PD1 2.5 mg/kg; treatment from day 7
# Method: 100,000 GL261 mouse glioma cells were injected intracranially to immune competent mice, C57 BL/6. 7 days post the injection, the mice were randomly divided into 4 experimental groups, and initiated the treatment at the same day. • Group 1. Control: IV and Intracardiac injection of 40 μl Saline Solution (5). • Group 2. Antibody treated mice: IV 40 μl Anti-mouse PD1 antibody at the dose of 2.5 mg/kg (5). • Group 3. NEO100 treated mice: Intracardiac injection of 40 μl 5% NEO100(5). • Group 4. Combination of NEO100 and antibody treated mice: Intracardiac 40 μl 5% NEO100, followed by IV 40 μl Anti-PD1 antibody at the dose of 2.5 mg/kg (6).
# Animal survival data were plotted using the Kaplan-Meier method. One-way ANOVA was used for the overall test for differences. Grouped comparisons were performed using the Tukey method of adjusting for multiple comparisons. Logrank (Mantel-Cox) test was applied for the comparison of survival curves. A statistical evaluation result of p<0.05 was considered significant. • Control vs IC NEO100+IV Anti-mouse PD-1: *** P<0.0003 • Control vs IV Anti-mouse PD-1: ns, p=0.31 • IV Anti-mouse PD-1 vs IC NEO100+IV Anti-mouse: ** P<0.005 • Control vs IC NEO100: ns, p=0.397
# GL261 mouse glioma [4] = experiment: NEO100-mediated human CAR T cell delivery to brain and tumor (CD3 IHC); assay type: in vivo
# Method: 2-million CD19 and Lym-1 human CAR T cells that were suspended in 0.9% saline working solution to be used for the IV injection with and without intracardiac NEO100.
# Preparation of the working solution for intracardiac injection of NEO100: 3% NEO100 suspended in 0.9% saline.
# 40 μl 3% NEO100 in saline was injected slowly to complete intracardiac application. Direct cell injection into the heart could cause local microinfaractions if the cells are clumpy during injection, hemopericardium and death as a consequence. This is why ultrasound guided injections with a small 30 G needle is important to minimize these potential adverse effects, (1) enabling the visualization of the needle tract to ensure that the needle enters the left ventricle only, and (2) subsequent monitoring of the heart through not only ECG but visualization of heart wall function after the injection. The fine gauge of the needle ensures that the cells are not clumpy when the cells are injected through intracardiac puncture.
# Immediate after the completion of NEO100 injection, 2 million human CAR T cells in 40 μl PBS were injected through tail vein catheter that pre-primed with saline solution. To avoid the possible adverse effects mentioned above by direct cell injection through intracardiac application, we set up 2-step procedures for the study.
# Step 1: 40 μl 3% NEO100 in saline was injected slowly to complete intracardiac application. This procedure allows NEO100 to exert the function of BBB disruption.
# Step 2:2-million CAR T cells were injected by IV through tail vein catheter.
# Brain Perfusion—In order to rule out the residue left over inside the blood vessel after euthanizing, the testing animals were perfused by 10 ml 0.9% normal saline solution through left ventricle to flush out the blood.
# Confocal Imaging—8 UM fresh frozen sections were made by cryostasis machine and pasted on microslide. Coverslip was mounted on the brain section by DAPI mounting medium before Confocal examination. […]
# [5] = tested on: recurrent malignant gliomas; settings: intranasal delivery, cited from earlier work
# Method for blood-brain-barrier: Brain Perfusion-Before euthanizing, the testing animals was perfused by 0.9% normal saline solution through left ventricle. The brain was removed and buried in OCT, and stored in −80° C. for further analysis.
# Ultrasound Guided Intracardiac Puncture-Briefly, the animals were anesthetized using 2% isoflurane gas and fixed on the platform for intracardiac puncture. To penetrate the syringe needle into intercoastal space promptly through skin and muscle layers into the left ventricle under the guidance of ultrasound imaging. An indication of successful insertion of the needle into the left ventricle is the reflux of fresh arterial blood (pink color in contrast to dark red venous blood) into the syringe.
# The extravasation of stained albumin from circulation could be visualized.
# NEO100 was delivered via intra-cardiac injection (left ventricle) to determine if there is increased uptake of Evans Blue, a BBB nonpermeable small molecule (dopamine), or antibodies into the brain. […] Different concentration of NE0100 (40 μl in 0.9% saline) was tested through intracardiac puncture, followed by immediate intravenous application of 2% Evans Blue (40 μl in volume). The brain was removed after perfusion.
# Experimental groups include: • IC 2% EB only • IC 20% ethanol+2% EB • IC 20% ethanol+2% EB+5% NEO100 • IC 20% ethanol+5% NEO100, followed by 2% EB tail vein injection • IV 20% ethanol+2% EB+5% NEO100 • IV 20% ethanol+2% EB
# The immune competent C57 BL/6 mice was injected with 5% NEO100 (v/v) through intracardiac puncture (IC), followed by intravenous injection of 2% Evans Blue at different time points, such as 0, 5 min, 15 min, 30 min, 1-hour, 2-hour, 3-hour, and 4 hours, post the IC injection.
# The experimental procedure included: • 1. Intracardiac Injection (IC): 5% NEO100. • 2. Followed by intravenous injection (IV) of 2% EB at different times. • 3. The testing animals were euthanized one hour after the IV injection.
structure (smiles),measurement,setting,value
"C=C(C)[C@@H]1CC=C(CO)CC1 [NEO100, perillyl alcohol]",penetration of fluorescence labelled antibody across in vitro BBB model,"[1]; Alexa Fluor 488 donkey anti-rat IgG, lower chamber at about 120 minutes",transiently allow labeled antibodies to transiently cross it; also recorded: enhanced penetration
same,TEER,[1]; NEO100 2 mM,decreased
same,delivery of remdesivir across the BBB,[2],very efficient
same,disturbance of the BBB (Evans Blue uptake into brain),"blood-brain-barrier; 1:1000 dilution (6.5 mM 40 μl) IC, then IV 2% Evans Blue",still effective to disturb the BBB
same,dopamine delivery to brain,blood-brain-barrier; intracardiac NEO100,mediated dopamine delivery through the breached blood-brain-barrier
same,opening of the BBB for antibodies,blood-brain-barrier; intracardiac injection (equivalent to intra-arterial injection for mice),could open the BBB for antibodies
same,tight junction in the brain,blood-brain-barrier; intracardiac injection of 5% NEO100 compared to normal brain,breached dramatically
same,safety of intraarterial administration,"blood-brain-barrier; mouse, in vivo",safe
same,animal survival,GL261 mouse glioma [3],dead
same,severe adverse effect or animal death,"GL261 mouse glioma [4]; 3% NEO100 intracardiac injection, 40 μl",does not cause any severe adverse effect or animal death
same,penetration of human CAR T cells into the tumor formed inside the brain,"GL261 mouse glioma [4]; IC 3% NEO100 then IV 2 million anti-CD19 or Lym-1 CAR T cells, compared to IV only, 6 h",greatly increase the penetration
same,CD3 positive cells in the normal parts of brain,GL261 mouse glioma [4]; IC NEO100 vs IV injection only samples,More CD3 positive cells
same,treated patients achieving 6 month progression-free period,[5]; 140 treated patients,50%
same,"disease remission, several patients",[5],≤ 3 years
same,disease response,[5],regression or stabilization of the disease
same,side effects from the treatment,[5],almost non-existent
